Laboratory results published in US20240336628A1, “NOVEL COMPOUNDS, COMPOSITIONS, AND THERAPEUTIC USES THEREOF” (Breakpoint Therapeutics GmbH, priority 2023, published 2024).

Target: T1, Polθ (truncated Polθ-Hel protein containing the helicase domain 67-894) (Homo sapiens, UniProt O75417)
T1 construct: a truncated Polθ protein (Polθ-Hel containing the helicase domain (67-894))
Experiment: Polθ ATPase assay (Biological Assay 1, ADP-Glo luminescence)
Type: biochemical
Details: Table B (Part B compounds); same assay as Biological Assay 1
Experimental: The Polθ ATPase assay was used to evaluate inhibitors of Polθ ATPase activity, in vitro. Experiments were performed using a truncated Polθ protein (Polθ-Hel containing the helicase domain (67-894), ATP and a DNA single strand Oligo (5′-CTGTCCTGCATGATG-3′) in the Polθ assay buffer (20 mM Tis-HCl (pH 8.8), MgCl2 5 mM, tween20 0.01%, NP40 0.01%, BSA 0.01%, DTT 1 mM). 2 μL of assay buffer containing Pole-Hel protein (0.5 nM) and DNA substrate (500 nM) was transferred into assay ready plates, containing 0.04 μL of compounds diluted in DMSO. After a 30 minutes incubation at 23° C. in the dark, the reaction was triggered by adding 2 μL of ATP (60 μM), in assay buffer. After 60 minutes at 23° C., 4 μl of ADP-Glo™ Reagent (Glo 1) was added followed by 40 minutes of incubation, then 8 μl of ADP-Glom kinase Detection Reagent (Glo 2) followed by 60 minutes of incubation at 23° C. Luminescence was then measured using Tecan F200 infinite plate reader. Raw data were analysed using GeneData to generate IC50 values.
The Polθ ATPase assay described in Biological Assay 1 above was used to evaluate inhibitors of Polθ ATPase activity for the compounds described in the Experimental Part B above, in vitro.

T1 sequence (O75417 67-894): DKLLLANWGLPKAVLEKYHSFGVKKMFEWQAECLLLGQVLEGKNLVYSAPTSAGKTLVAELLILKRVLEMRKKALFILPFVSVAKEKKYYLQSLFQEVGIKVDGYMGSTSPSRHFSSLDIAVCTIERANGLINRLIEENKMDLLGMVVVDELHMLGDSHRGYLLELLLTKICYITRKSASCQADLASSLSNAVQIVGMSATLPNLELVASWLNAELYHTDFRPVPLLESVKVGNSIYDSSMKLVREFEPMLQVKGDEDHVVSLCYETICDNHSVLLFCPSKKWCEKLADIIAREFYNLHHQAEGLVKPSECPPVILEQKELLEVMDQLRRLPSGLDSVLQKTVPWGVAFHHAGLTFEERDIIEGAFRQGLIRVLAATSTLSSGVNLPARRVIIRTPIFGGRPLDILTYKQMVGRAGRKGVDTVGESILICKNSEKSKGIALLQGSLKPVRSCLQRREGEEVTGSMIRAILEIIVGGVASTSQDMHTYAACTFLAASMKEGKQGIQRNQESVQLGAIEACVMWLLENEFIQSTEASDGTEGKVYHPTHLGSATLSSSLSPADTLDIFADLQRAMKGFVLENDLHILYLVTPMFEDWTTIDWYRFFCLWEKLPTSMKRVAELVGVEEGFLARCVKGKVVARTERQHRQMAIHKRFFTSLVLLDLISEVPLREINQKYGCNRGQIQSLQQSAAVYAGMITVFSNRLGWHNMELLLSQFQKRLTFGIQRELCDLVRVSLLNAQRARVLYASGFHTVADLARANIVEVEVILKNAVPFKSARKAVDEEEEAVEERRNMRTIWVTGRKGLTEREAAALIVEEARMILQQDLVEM

IC50: < 0.1 µM
SMILES: COc1cnc(Cl)cc1-c1cn(C)c(=O)cc1C(=O)Nc1nc2cnc(N3CCC(O)CC3)nc2s1 [Example 125]
